In US12649751B2 (Arcus Biosciences, Inc., priority 2022, dated 2026):
Read-outs that look alike come from different tables or passages of the source.

Experiments:
[1] = molecular target: HPK1 (Homo sapiens, UniProt Q92918); test: HPK1 Biochemical Assay (ADP-Glo luminescence; low ATP 10 μM or high ATP 200 μM); conditions: HPK1 ADP-Glo assay
[2] = tested on: p-SLP-76 (Ser376) in Jurkat cells; test: pSLP76 Cellular Assay (AlphaLISA SureFire Ultra p-SLP-76 (Ser376), anti-CD3 activated Jurkat cells); format: cell-based; conditions: pSLP76 (Ser376) AlphaLISA, anti-CD3 activated Jurkat cells, read-out: Cellular Potency
Method in brief: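 Jurkat cells, serum-starved overnight in Opti-MEM then in HBSS, preincubated 1 h at 37 °C with 22-point 2-fold compound dilutions, then stimulated with anti-CD3 (0.025 mg/ml added solution) for 45 min. Lysate p-SLP-76 (Ser376) measured by AlphaLISA at 570 nm; IC50 from 4-parameter logistic fit.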

[3] = high ATP (200 μM ATP, 5 nM HPK1), read-out: Biochemical Potency (high ATP)
[4] = low ATP (10 μM ATP, 2 nM HPK1), read-out: Biochemical Potency (low ATP)

Chain of HPK1 (Q92918 whole entry, species assumed): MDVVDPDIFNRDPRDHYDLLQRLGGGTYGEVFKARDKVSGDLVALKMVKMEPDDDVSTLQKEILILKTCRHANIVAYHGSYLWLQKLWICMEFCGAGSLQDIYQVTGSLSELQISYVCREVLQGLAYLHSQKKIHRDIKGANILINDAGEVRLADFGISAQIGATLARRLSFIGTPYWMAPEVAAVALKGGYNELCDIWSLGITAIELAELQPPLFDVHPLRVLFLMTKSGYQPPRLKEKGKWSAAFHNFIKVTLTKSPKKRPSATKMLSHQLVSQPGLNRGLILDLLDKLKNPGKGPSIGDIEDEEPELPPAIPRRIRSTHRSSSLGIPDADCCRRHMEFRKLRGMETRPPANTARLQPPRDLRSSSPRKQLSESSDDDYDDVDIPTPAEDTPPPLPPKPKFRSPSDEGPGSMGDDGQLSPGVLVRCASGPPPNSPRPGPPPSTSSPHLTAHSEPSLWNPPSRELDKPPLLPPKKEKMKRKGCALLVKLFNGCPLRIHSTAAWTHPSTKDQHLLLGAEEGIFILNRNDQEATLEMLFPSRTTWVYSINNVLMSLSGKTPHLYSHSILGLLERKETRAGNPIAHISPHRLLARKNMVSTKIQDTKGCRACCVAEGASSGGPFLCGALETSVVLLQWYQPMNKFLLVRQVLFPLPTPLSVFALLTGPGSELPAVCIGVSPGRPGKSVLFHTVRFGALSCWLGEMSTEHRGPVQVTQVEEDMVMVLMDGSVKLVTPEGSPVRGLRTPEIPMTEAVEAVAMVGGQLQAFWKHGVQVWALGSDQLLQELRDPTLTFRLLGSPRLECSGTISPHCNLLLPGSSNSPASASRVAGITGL

IC50 [1, 3] [nM]	IC50 ([2]; Homo sapiens) [nM]	IC50 [1, 4] [nM]	IC50 [2] [nM]	Compound
< 100	100 to 1000			Cc1cc(Nc2cc3nc(-c4ccnc(N5CC6CCC(C5)O6)c4)sc3cn2)nc(N2C[C@@H]3C[C@H]2CN3CCO)n1 [Example 448]
< 100	100 to 1000			Cc1cc(Nc2cc3nc(-c4ccnc(N5CCCOCC5)c4)sc3cn2)nc(N2C[C@@H]3C[C@H]2CN3CCO)n1 [Example 449]
< 100	< 100			Cc1cc(Nc2cc3nc(-c4ccnc(N5CCOC[C@H]5C)c4)sc3cn2)nc(N2C[C@@H]3C[C@H]2CN3CCO)n1 [Example 450]
< 100	100 to 1000			Cc1cc(Nc2cc3nc(-c4ccnc(N5CCO[C@H](C)C5)c4)sc3cn2)nc(N2C[C@@H]3C[C@H]2CN3CCO)n1 [Example 451]
< 100	100 to 1000			Cc1cc(Nc2cc3nc(-c4ccnc(N5C[C@H]6COC[C@H]6C5)c4)sc3cn2)nc(N2C[C@@H]3C[C@H]2CN3CCO)n1 [Example 452]
< 100	100 to 1000			CO[C@@H]1CCN(c2cc(-c3nc4cc(Nc5cc(C)nc(N6C[C@@H]7C[C@H]6CN7CCO)n5)ncc4s3)ccn2)C1 [Example 453]
< 100	100 to 1000			CO[C@H]1CCN(c2cc(-c3nc4cc(Nc5cc(C)nc(N6C[C@@H]7C[C@H]6CN7CCO)n5)ncc4s3)ccn2)C1 [Example 454]
< 100	100 to 1000			Cc1cc(Nc2cc3nc(-c4ccnc(N5CCOC[C@H]5C)c4)sc3cn2)nc(N2C[C@@H]3C[C@H]2CN3C)n1 [Example 455]
< 100	1000 to 5000			COC1CCN(c2cc(-c3nc4cc(Nc5cc(C)nc(N6C[C@@H]7C[C@H]6CN7C)n5)ncc4s3)ccn2)CC1 [Example 456]
< 100	100 to 1000			Cc1cc(Nc2cc3nc(-c4ccnc(N5C[C@H]6COC[C@H]6C5)c4)sc3cn2)nc(N2C[C@@H]3C[C@H]2CN3C)n1 [Example 457]
< 100	100 to 1000			Cc1cc(Nc2cc3nc(-c4ccnc(N5CCOCC5)c4)sc3cn2)nc(N2C[C@@H]3C[C@H]2CN3CCO)n1 [Example 458]
		< 100	100 to 1000	CN1C[C@@H]2C[C@H]1CN2c1nccc(Nc2cc3nc(-c4ccnc(N5CCOCC5)c4)sc3cn2)n1 [Example 460]
		< 100	100 to 1000	CN1C[C@@H]2C[C@H]1CN2c1nccc(Nc2cc3nc(-c4ccnc(N5CC[C@@H](O)C5)c4)sc3cn2)n1 [Example 464]
< 100	100 to 1000			CCN1C[C@@H]2C[C@H]1CN2c1nc(C)cc(Nc2cc3nc(-c4cc(C)cc(N5C(=O)CC[C@H]5C)c4)sc3cn2)n1 [Example 466]
< 100	< 100			Cc1cc(Nc2cc3nc(-c4c(C)ccc(C(C)(C)O)c4C)sc3cn2)nc(N2C[C@@H]3C[C@H]2CN3C)n1 [Example 467]
< 100	100 to 1000			Cc1cc(Nc2cc3nc(-c4ncccc4OC(F)F)sc3cn2)nc(N2C[C@@H]3C[C@H]2CN3C)n1 [Example 468]
< 100	100 to 1000			COc1cccnc1-c1nc2cc(Nc3cc(C)nc(N4C[C@@H]5C[C@H]4CN5C)n3)ncc2s1 [Example 469]
< 100	100 to 1000			CCN1C[C@@H]2C[C@H]1CN2c1nc(C)cc(Nc2cc3nc(-c4cncc(N5CCC(F)CC5)c4)sc3cn2)n1 [Example 470]
< 100	100 to 1000			CCN1C[C@@H]2C[C@H]1CN2c1nc(C)cc(Nc2cc3nc(-c4cncc(N[C@H](C)c5ccccc5)c4)sc3cn2)n1 [Example 471]
< 100	100 to 1000			CCN1C[C@@H]2C[C@H]1CN2c1nc(C)cc(Nc2cc3nc(-c4cncc(N5C[C@H]6COC[C@H]6C5)c4)sc3cn2)n1 [Example 472]
< 100	< 100			CCN1C[C@@H]2C[C@H]1CN2c1nc(C)cc(Nc2cc3nc(-c4ccnc(N5CCOC[C@H]5C(C)C)c4)sc3cn2)n1 [Example 474]
< 100	< 100			CC[C@@H]1COCCN1c1cc(-c2nc3cc(Nc4cc(C)nc(N5C[C@@H]6C[C@H]5CN6CC)n4)ncc3s2)ccn1 [Example 475]
< 100	< 100			Cc1cc(Nc2cc3nc(-c4cncc(N5CCOC[C@H]5C)c4)sc3cn2)nc(N2C[C@@H]3C[C@H]2CN3CCO)n1 [Example 476]
< 100	100 to 1000			Cc1cc(Nc2cc3nc(-c4cncc(N5CCOCC5)c4)sc3cn2)nc(N2C[C@@H]3C[C@H]2CN3CCO)n1 [Example 477]
< 100	100 to 1000			Cc1cc(Nc2cc3nc(-c4ccnc(N5CCS(=O)(=O)CC5)c4)sc3cn2)nc(N2C[C@@H]3C[C@H]2CN3C)n1 [Example 478]

IC50 [1, 3] [nM]	IC50 ([2]; Homo sapiens) [nM]	IC50 [1, 4] [nM]	IC50 [2] [nM]	Compound
< 100	100 to 1000			Cc1cc(Nc2cc3nc(-c4cccc(N5CC(F)C5)c4)sc3cn2)nc(N2C[C@@H]3C[C@H]2CN3C)n1 [Example 479]
< 100	100 to 1000			Cc1cc(Nc2cc3nc(-c4ccnc(C5CCOCC5)c4)sc3cn2)nc(N2C[C@@H]3C[C@H]2CN3C)n1 [Example 480]
< 100	1000 to 5000			Cc1cc(Nc2cc3nc(-c4ccncc4O[C@H]4CCOC4)sc3cn2)nc(N2C[C@@H]3C[C@H]2CN3C)n1 [Example 481]
< 100	1000 to 5000			Cc1cc(Nc2cc3nc(-c4ccnc(O[C@H]5CCOC5)c4)sc3cn2)nc(N2C[C@@H]3C[C@H]2CN3C)n1 [Example 482]
< 100	100 to 1000			CCN1C[C@@H]2C[C@H]1CN2c1nc(C)cc(Nc2cc3nc(O[C@@H](C)c4ccccc4)sc3cn2)n1 [Example 483]
< 100	< 100			CCN1C[C@@H]2C[C@H]1CN2c1nc(C)cc(Nc2cc3nc(Oc4cccnc4)sc3cn2)n1 [Example 484]
< 100	100 to 1000			CCN1C[C@@H]2C[C@H]1CN2c1nc(C)cc(Nc2cc3nc(O[C@H](C)c4c(Cl)ccc(F)c4Cl)sc3cn2)n1 [Example 485]
	5000 to 25000	100 to 1000		Fc1cccc(F)c1-c1nc2cc(Nc3cc4c(cn3)CCNC4)ncc2s1 [Example 486]
< 100	< 100			Cc1cc(Nc2cc3nc(-c4cccc(C(=O)N(C)C)c4)sc3cn2)nc(N2C[C@@H]3C[C@H]2CN3[C@H]2CCOC2)n1 [Example 487]
< 100	100 to 1000			Cc1cc(Nc2cc3nc(-c4cccc(C(=O)N(C)C)c4)sc3cn2)nc(N2C[C@@H]3C[C@H]2CN3C[C@@H]2CCOC2)n1 [Example 488]
< 100	100 to 1000			CCOCCN1C[C@@H]2C[C@H]1CN2c1nc(C)cc(Nc2cc3nc(-c4cccc(C(=O)N(C)C)c4)sc3cn2)n1 [Example 489]
< 100	100 to 1000			Cc1cc(Nc2cc3nc(-c4cccnc4)sc3cn2)nc(N2C[C@@H]3C[C@H]2CN3Cc2ccccc2)n1 [Example 490]
< 100	100 to 1000			Cc1cc(Nc2cc3nc(-c4cccc(C(=O)N(C)C)c4)sc3cn2)nc(N2C[C@@H]3C[C@H]2CN3CCOC(C)C)n1 [Example 492]
< 100	100 to 1000			Cc1cc(Nc2cc3nc(-c4cccc(C(=O)N(C)C)c4)sc3cn2)nc(N2C[C@@H]3C[C@H]2CN3Cc2ccccn2)n1 [Example 493]
< 100	100 to 1000			Cc1cc(Nc2cc3nc(-c4cccc(C(=O)N(C)C)c4)sc3cn2)nc(N2C[C@@H]3C[C@H]2CN3Cc2cnn(C)c2)n1 [Example 494]
< 100	100 to 1000			CC(=O)N(C)CCN1C[C@@H]2C[C@H]1CN2c1nc(C)cc(Nc2cc3nc(-c4cccc(C(=O)N(C)C)c4)sc3cn2)n1 [Example 495]
< 100	< 100			Cc1cc(Nc2cc3nc(-c4cccc(C(=O)N(C)C)c4)sc3cn2)nc(N2C[C@@H]3C[C@H]2CN3Cc2ccccc2)n1 [Example 496]
< 100	100 to 1000			Cc1cc(Nc2cc3nc(-c4cccc(C(=O)N(C)C)c4)sc3cn2)nc(N2C[C@@H]3C[C@H]2CN3Cc2cccnc2)n1 [Example 497]
100 to 1000	1000 to 5000			Cc1cc(Nc2cc3nc(-c4cccc(C(=O)N(C)C)c4)sc3cn2)nc(N2C[C@@H]3C[C@H]2CN3CCN(C)S(C)(=O)=O)n1 [Example 498]
< 100	< 100			Cc1cc(Nc2cc3nc(-c4cnn(C)c4)sc3cn2)nc(N2C[C@@H]3C[C@H]2CN3C[C@@H](C)O)n1 [Example 499]
< 100	< 100			Cc1cc(Nc2cc3nc(-c4cccc(S(=O)(=O)C5CC5)c4)sc3cn2)nc(N2C[C@@H]3C[C@H]2CN3CCO)n1 [Example 500]
< 100	< 100			Cc1cc(Nc2cc3nc(-c4cccc(S(=O)(=O)CC5CC5)c4)sc3cn2)nc(N2C[C@@H]3C[C@H]2CN3CCO)n1 [Example 501]
< 100	100 to 1000			Cc1cc(Nc2cc3nc(-c4cccc(C(=O)N(C)C)c4)sc3cn2)nc(N2C[C@@H]3C[C@H]2CN3CCOCCO)n1 [Example 502]
< 100	100 to 1000			Cc1cc(Nc2cc3nc(-c4cnn(CC5CC5)c4)sc3cn2)nc(N2C[C@@H]3C[C@H]2CN3CC(C)(C)O)n1 [Example 503]
